Measured values taken from ChEMBL document CHEMBL5385954, “Pepticinnamins N, O, and P, Nonribosomal Peptides from the Soil-Derived Streptomyces mirabilis P8-A2” (J Nat Prod, 2024).

Key:
Staphylococcus aureus = test: Antimicrobial activity against Staphylococcus aureus 8325 incubated for 12 hrs by agar diffusion method; type: functional
Candida albicans = test: Antimicrobial activity against Candida albicans IBT 656 incubated for 24 hrs by broth dilution method; type: functional
Bacillus subtilis = test: Antimicrobial activity against Bacillus subtilis incubated for 12 hrs by agar diffusion method; type: functional
Pseudomonas aeruginosa = test: Antimicrobial activity against Pseudomonas aeruginosa PAO1 incubated for 12 hrs by agar diffusion method; type: functional
LNCaP C4-2B [1] = test: Cytotoxicity against human LNCaP C4-2B cells assessed as inhibition of cell growth incubated for 72 hrs by CellTox Green cytotoxicity assay; type: functional, cell-based
LNCaP [2] = test: Cytotoxicity against drug resistant human LNCaP cells assessed as inhibition of cell growth incubated for 72 hrs by CellTox Green cytotoxicity assay; type: functional, cell-based
LNCaP [3] = test: Cytotoxicity against human LNCaP cells assessed as inhibition of cell growth incubated for 72 hrs by CellTox Green cytotoxicity assay; type: functional, cell-based
LNCaP C4-2B [4] = test: Cytotoxicity against drug resistant human LNCaP C4-2B cells assessed as inhibition of cell growth incubated for 72 hrs by CellTox Green cytotoxicity assay; type: functional, cell-based

| SMILES | MIC (Staphylococcus aureus) [µg/mL] | MIC (Candida albicans) [µg/mL] | MIC (Bacillus subtilis) [µg/mL] | MIC (Pseudomonas aeruginosa) [µg/mL] | IC50 (LNCaP C4-2B [1]) [µM] | IC50 (LNCaP [2]) [µM] | IC50 (LNCaP [3]) [µM] | IC50 (LNCaP C4-2B [4]) [µM] |
| --- | --- | --- | --- | --- | --- | --- | --- | --- |
| CCC/C=C\c1ccccc1/C=C/C(=O)N[C@H](Cc1ccc(O)cc1)C(=O)N(C)[C@@H](Cc1ccc(OC)c(O)c1)C(=O)N(C)[C@@H](Cc1ccccc1)C(=O)O | > 50 | > 50 | > 50 | > 50 | – | – | – | – |
| CCC/C=C\c1ccccc1/C=C/C(=O)N[C@H](Cc1ccc(O)cc1)C(=O)N(C)[C@@H](Cc1ccc(OC)c(O)c1Cl)C(=O)N(C)[C@@H](Cc1ccccc1)C(=O)O | > 50 | > 50 | > 50 | > 50 | > 10 | > 10 | > 10 | > 10 |
| CCC/C=C\c1ccccc1/C=C/C(=O)N[C@H](Cc1ccc(O)cc1)C(=O)N(C)[C@@H](Cc1ccc(OC)c(O)c1Cl)C(=O)N(C)[C@@H](Cc1ccccc1)C(=O)OC[C@H]1NC(=O)CNC1=O | > 50 | > 50 | > 50 | > 50 | > 10 | > 10 | > 10 | > 10 |
| CCC/C=C\c1ccccc1/C=C/C(=O)N[C@H](Cc1ccc(O)cc1)C(=O)N(C)[C@@H](Cc1ccc(OC)c(O)c1)C(=O)N(C)[C@@H](Cc1ccccc1)C(=O)OC[C@H]1NC(=O)CNC1=O | > 50 | > 50 | > 50 | > 50 | > 10 | > 10 | > 10 | > 10 |
